{
  "source": "patent US9101613B2",
  "about": "“Methods for treating neurological disease” (Neurim Pharmaceuticals (1991) Ltd., priority 2006, dated 2015)",
  "test_system": "C57BL/6 mice",
  "experiment": "MPTP mouse model of Parkinson's disease, pole test",
  "format": "in vivo",
  "source_text": "Three-month-old male C57BL/6 mice were housed in groups of 5 animals per cage (50 cm×25 cm×20 cm) in a temperature- and humidity-controlled environment with ad libitum access to food and water. Animals were maintained on a 12 hr light/dark schedule, with lights on at 7 A.M.\nSix groups of mice were used: (1) the control mice treated with saline and vehicle (n=10), (2) the N-[2-(5-methoxy-indol-3-yl)-ethyl]-comanilamide control mice treated with saline and N-[2-(5-methoxy-indol-3-yl)-ethyl]-comanilamide at 100 or 200 mg/kg (n=5, respectively), (3) the MPTP mice treated with MPTP and vehicle (n=10) and (4) the N-[2-(5-methoxy-indol-3-yl)-ethyl]-comanilamide-treated MPTP mice treated with MPTP and N-[2-(5-methoxy-indol-3-yl)-ethyl]-comanilamide at 100 or 200 mg/kg (n=10, respectively). Mice received daily (i.p.) injections of saline or MPTP (30 mg/kg/day) dissolved in physiological saline for five consecutive days to induce Parkinsonism. N-[2-(5-methoxy-indol-3-yl)-ethyl]-comanilamide or vehicle was administered (i.p.) once per day for 17 days, starting on the first day of MPTP injections. Open field test, pole test, forepaw stride length test and traction test were conducted on day 14, 15, 16 and 17 after the first injections of MPTP, respectively.\nIn the pole test, the mouse was placed head upward on the top of a vertical wooden rough-surfaced pole (diameter: 1 cm, height: 50 cm), then allowed to descend five times. Each mouse was habituated to the apparatus two sessions (one session per day) before the day of first MPTP injections. The total time until the mouse reached the floor with its four paws was recorded (T-total) as well as the time needed for the mouse to turn completely head downward (T-turn). For each session of five descents, the best performance was kept for the T-turn and T-total. If the mouse was unable to turn completely downwards, fell or slipped down, the default value of 20 s was taken into account.",
  "data": [
    {"smiles": "COc1ccc2[nH]cc(CCNC(=O)c3cc(=O)cco3)c2c1", "note": "[N-[2-(5-methoxy-indol-3-yl)-ethyl]-comanilamide]", "values": [
      {"measurement": "T-turn, pole test, vs MPTP mice", "setting": "100 mg/kg i.p., p<0.05", "result": "showed less level of the T-turn"},
      {"measurement": "T-turn, pole test, vs MPTP mice", "setting": "200 mg/kg i.p., p>0.05", "result": "no significant difference in the T-turn"},
      {"measurement": "T-turn, pole test, vs control mice", "setting": "saline mice, 100 or 200 mg/kg i.p., both p>0.05", "result": "no significant difference in the T-turn"}
    ]}
  ]
}
